Results published in PubChem BioAssay AID1208 (EPA DSSTox, 2008).
Activity calls are given as the source filed them.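 The calls were made as follows: active = at least one rat sex group has a carcinogenic potency value and tumor site recorded; inconclusive = only rat studies were judged inadequate by the national testing program; inactive = no potency or tumor site, with negative rat experiments.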

Test system: rat chronic carcinogenicity bioassay, TD50
Assay: DSSTox (CPDBAS) Carcinogenic Potency Database Summary Rat Bioassay Results
Settings: for Potency: stronger effect = lower value; for outcome: TD50_Rat_Note: no positive results
Procedure, shortened: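 The activity score maps log10(1/TD50_Rat_mmol) linearly onto 1–100; actives without a computed TD50, such as mixtures, receive 50. Source data are chronic rat carcinogenicity tests, using the most positive experiment for each sex.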

[1] = TargetSites_Rat_Female: no positive results
[2] = TargetSites_Rat_BothSexes: no positive results
[3] = TD50_Rat_Note: TD50 is harmonic mean of more than one positive test, TargetSites_Rat_Female: thyroid gland
[4] = TD50_Rat_Note: TD50 is harmonic mean of more than one positive test, TargetSites_Rat_Female: liver
[5] = TD50_Rat_Note: TD50 is harmonic mean of more than one positive test

## CNC(=O)c1c(N(C)N=O)ncn1C
TargetSites_Rat_BothSexes: nasal cavity
  Potency: 1 mg/kg/day

## CCOP(=S)(OCC)Oc1cc(C)nc(C(C)C)n1
[1]
  outcome: inactive; no positive results

## CBr
[1]
  outcome: inactive; no positive results

## CC(=O)CN(CC(O)CO)N=O (centres undefined)
TargetSites_Rat_Female: esophagus, oral cavity, stomach
  Potency: 0.0352 mg/kg/day

## Cc1c(-c2cnccn2)ssc1=S
[1]
  outcome: inactive; no positive results

## O=NN1CN2CN(C1)CN(N=O)C2
  outcome: inactive; no positive results

## C#C[C@]1(OC(C)=O)CC[C@H]2[C@@H]3CCC4=CC(=O)CC[C@@H]4[C@H]3CC[C@@]21C
TD50_Rat_Note: TD50_Rat_mmol was not calculated for this mixture, but Activiity Score is assigned value of 50 to indicate active, TargetSites_Rat_BothSexes: liver, mammary gland, pituitary gland, uterus
  Potency: 1.94 mg/kg/day

## C=C(C)[C@H]1CC=C(C)CC1
[1]
  Potency: 204 mg/kg/day

## O=NN1CCCN(N=O)CC1
TD50_Rat_Note: TD50 is harmonic mean of more than one positive test, TargetSites_Rat_Female: esophagus, liver, nasal cavity, oral cavity
  Potency: 0.0615 mg/kg/day

## O=C1CCc2ccccc2O1
[1]
  Potency: 2970 mg/kg/day

## Cc1ccc(N=C=O)cc1N=C=O
TD50_Rat_Note: TD50 is harmonic mean of more than one positive test, TargetSites_Rat_Female: liver, mammary gland, pancreas, subcutaneous tissue
  Potency: 33.7 mg/kg/day

## Clc1ccc(C(c2ccc(Cl)cc2)C(Cl)Cl)cc1
[1]
  outcome: inactive; no positive results

## COc1cc(O)c2c(=O)c3c(OC)cc4c(c3oc2c1OC)C1C=COC1O4 (centres undefined)
TD50_Rat_Note: TD50 value is overestimated as upper 99% confidence limit from study with 100% tumor incidence but no lifetable, harmoni
  Potency: 0.364 mg/kg/day

## O=C1C(c2[nH]c3ccc(S(=O)(=O)O)cc3c2O)=Nc2ccc(S(=O)(=O)O)cc21
[2]
  outcome: inactive

## CCc1ccccc1
TD50_Rat_Note: TD50 is harmonic mean of more than one positive test, greater than ten-fold variation among TD50 values for positive res, TargetSites_Rat_Female: Maltoni head cancers, kidney
  Potency: 72.6 mg/kg/day

## CC(=O)C(N=Nc1ccc(Cl)cc1Cl)C(=O)Nc1ccc(-c2ccc(NC(=O)C(N=Nc3ccc(Cl)cc3Cl)C(C)=O)c(C)c2)cc1C (centres undefined)
[2]
  outcome: inactive

## Cc1cccc(Nc2cc(Cl)nc(SCC(=O)O)n2)c1C
TD50_Rat_Note: TD50 is harmonic mean of more than one positive test, harmonic mean of TD50 includes a value for upper 99% confidence li
  Potency: 4.36 mg/kg/day

## Nc1ccc(Cl)cc1N
TD50_Rat_Note: TD50 is harmonic mean of more than one positive test, TargetSites_Rat_Female: stomach, urinary bladder
  Potency: 214 mg/kg/day

## Cc1cccn2c1nc1ccc(N)nc12
TD50_Rat_Note: TD50 is harmonic mean of more than one positive test, TargetSites_Rat_Female: clitoral gland, ear Zymbals gland, large intestine, liver, nervous system, small intestine
  Potency: 4.69 mg/kg/day

## CC(I)C1OCC(CO)O1 (centres undefined)
[1]
  Potency: 101 mg/kg/day

## ClC(Cl)C(Cl)(Cl)Cl
[1]
  outcome: inactive; no positive results

## [Cl-].[Cl-].[Cl-].[Fe+3]
[1]
  outcome: inactive; no positive results

## CCC1(CCC(C)C)C(=O)NC(=O)NC1=O
  outcome: inactive; no positive results

## CCN(C=O)CC
  outcome: inactive; no positive results

## O=C1OC(c2ccc(O)cc2)(c2ccc(O)cc2)c2ccccc21
TD50_Rat_Note: TD50 is harmonic mean of more than one positive test, TargetSites_Rat_Female: adrenal gland
  Potency: 902 mg/kg/day

## Cc1ncc[nH]1
[3]
  Potency: 868 mg/kg/day

## CC(C)(C)NC[C@H](O)COc1cccc2c1CCCC2=O
[1]
  outcome: inactive; no positive results

## COc1cc2c(c3oc(=O)c4c(c13)CCC4=O)C1C=COC1O2 (centres undefined)
TD50_Rat_Note: TD50 is harmonic mean of more than one positive test, harmonic mean of TD50 includes a value for upper 99% confidence li, TargetSites_Rat_Female: large intestine, liver
  Potency: 0.0032 mg/kg/day

## CCN(N=O)C(=O)NCCO
TD50_Rat_Note: TD50 is harmonic mean of more than one positive test, TargetSites_Rat_Female: mammary gland, skin, uterus
  Potency: 0.522 mg/kg/day

## ClC#CCl
TD50_Rat_Note: TD50 is harmonic mean of more than one positive test, TargetSites_Rat_Female: hematopoietic system, kidney, liver
  Potency: 3.58 mg/kg/day

## CCOc1ccc2c(c1)C(C)=CC(C)(C)N2
[1]
  outcome: inactive; no positive results

## C=CC(N)=O
TD50_Rat_Note: TD50 is harmonic mean of more than one positive test, TargetSites_Rat_Female: clitoral gland, mammary gland, nervous system, oral cavity, thyroid gland, uterus
  Potency: 3.75 mg/kg/day

## S=c1nc[nH]c2nc[nH]c12
[1]
  outcome: inactive; no positive results

## CCCl
[1]
  outcome: inactive; no positive results

## O=NN1CCCCCCCCCCCC1
[4]
  Potency: 10.9 mg/kg/day

## C=C1C[C@@]23CC[C@H]4[C@@](C)(CCC[C@@]4(C)C(=O)O[C@@H]4O[C@H](CO)[C@@H](O)[C@H](O)[C@H]4O)[C@@H]2CC[C@]1(O[C@@H]1O[C@H](CO)[C@@H](O)[C@H](O)[C@H]1O[C@@H]1O[C@H](CO)[C@@H](O)[C@H](O)[C@H]1O)C3
[1]
  outcome: inactive; no positive results

## C[C@@H]1C[C@H](C)CN(S(=O)(=O)c2ccc(Cl)c(C(=O)O)c2)C1
  Potency: 4.85 mg/kg/day

## CCCN(N=O)C(=N)N[N+](=O)[O-]
[5]
  Potency: 1.31 mg/kg/day

## CN=[N+](C)[O-]
[5]
  Potency: 0.0466 mg/kg/day

## C=CC(=C)C
TD50_Rat_Note: TD50 is harmonic mean of more than one positive test, TargetSites_Rat_Female: mammary gland
  Potency: 313 mg/kg/day

## CC(=O)OC/C=C(\C)CCC=C(C)C
[1]
  outcome: inactive; no positive results

## CNC(=O)O/N=C(\SC)C(=O)N(C)C
[1]
  outcome: inactive; no positive results

## O=C/C=C/O
[3]
  Potency: 122 mg/kg/day

## CCCCCCCCCC[N+](C)(C)[O-]
[1]
  outcome: inactive; no positive results

## CCCc1ccc2c(c1)OCO2
TargetSites_Rat_BothSexes: esophagus
  Potency: 143 mg/kg/day

## Oc1ccc2c(c1)OCO2
TD50_Rat_Note: TD50 is harmonic mean of more than one positive test, TargetSites_Rat_Female: stomach
  Potency: 1350 mg/kg/day

## C1N2CN3CN1CN(C2)C3
[1]
  outcome: inactive; no positive results

## CC1=CC(=C(c2ccc(N)cc2)c2ccc(N)cc2)C=CC1=N
[1]
  outcome: inactive; no positive results

## Brc1cc(-c2ccc(Br)c(Br)c2Br)cc(Br)c1Br
[1]
  outcome: inactive

## Nc1ccc(-c2ccc(N)c(N)c2)cc1N
  Potency: 395 mg/kg/day

## O=C(O)c1ccc(O)c(O)c1
  outcome: inactive; no positive results

## CN[C@@H](C)[C@H](O)c1ccccc1
[1]
  outcome: inactive; no positive results

## Cc1nc(N)cc2[nH]c3ccccc3c12
TD50_Rat_Note: TD50 is harmonic mean of more than one positive test, TargetSites_Rat_Female: clitoral gland, hematopoietic system, liver, mammary gland, small intestine, vascular system
  Potency: 6.66 mg/kg/day

## C=CCOC(=O)CC(C)C
[1]
  Potency: 123 mg/kg/day

## CCC(CC)C(=O)NC(N)=O
  outcome: inactive; no positive results

## O=C1NCCN1/N=C/c1ccc([N+](=O)[O-])o1
TargetSites_Rat_Female: hematopoietic system, mammary gland
  Potency: 5.26 mg/kg/day

## CCn1nc(C)c2c1C(c1ccccc1)=NCC(=O)N2
[1]
  outcome: inactive; no positive results

## CCN(CC)CC#CC(C)(C)OC(=O)C(O)(c1ccccc1)C1CCCCC1 (centres undefined)
[1]
  outcome: inactive; no positive results

## CN(C)/N=N/c1nc[nH]c1C(N)=O
TargetSites_Rat_Female: hematopoietic system, mammary gland, uterus
  Potency: 0.71 mg/kg/day

## CC1=C(C(=O)OC(C)C)C(c2cccc([N+](=O)[O-])c2)C(C(=O)OC2CN(C(c3ccccc3)c3ccccc3)C2)=C(N)N1 (centres undefined)
[1]
  outcome: inactive; no positive results

## CCC(C)[N+](=O)[O-] (centres undefined)
  Potency: 2.86 mg/kg/day

## C#C[C@]1(O)CC[C@H]2[C@@H]3CCc4cc(O)ccc4[C@H]3CC[C@@]21C
TargetSites_Rat_Female: liver
  Potency: 0.2 mg/kg/day

## Clc1ccc(Cl)cc1
[1]
  Potency: 644 mg/kg/day

## CCN=[N+](C)[O-]
  Potency: 11.5 mg/kg/day

## O=C1N(CCO)CCN1/N=C/c1ccc([N+](=O)[O-])o1
TargetSites_Rat_Female: mammary gland
  Potency: 16.7 mg/kg/day

## NC1=NC(=O)C(c2ccccc2)O1 (centres undefined)
[1]
  outcome: inactive

## CC(N)=O
[4]
  Potency: 180 mg/kg/day

## CN(N=O)C(=O)Nc1nc2ccccc2s1
TargetSites_Rat_BothSexes: stomach
  Potency: 1.13 mg/kg/day

## S=C(SN1CCOCC1)N1CCOCC1
TD50_Rat_Note: TD50 is harmonic mean of more than one positive test, TargetSites_Rat_Female: kidney, urinary bladder
  Potency: 90.8 mg/kg/day

## CN(C)CNc1nnc(/C=C/c2ccc([N+](=O)[O-])o2)o1
TargetSites_Rat_Female: lung, mammary gland, small intestine, stomach
  Potency: 22.4 mg/kg/day

## Clc1cc2c(cc1Cl)Oc1cc(Cl)c(Cl)cc1O2
TD50_Rat_Note: TD50 is harmonic mean of more than one positive test, greater than ten-fold variation among TD50 values for positive res, TargetSites_Rat_Female: liver, lung
  Potency: 2.35e-05 mg/kg/day

## C[C@@H]1CC2(O[C@@H]2C)C(=O)O[C@@H]2CCN(C)C/C=C(/COC(=O)[C@]1(C)O)C2=O (some centres undefined)
TD50_Rat_Note: TD50 is harmonic mean of more than one positive test, TargetSites_Rat_Female: liver, vascular system
  Potency: 0.922 mg/kg/day

## CC1CN(N=O)CC(C)N1C(=O)c1ccccc1 (centres undefined)
TargetSites_Rat_Female: stomach
  Potency: 9.66 mg/kg/day

## Cc1ccccc1
TD50_Rat_Note: TD50 is harmonic mean of more than one positive test, TargetSites_Rat_Female: Maltoni head cancers
  Potency: 3060 mg/kg/day

## Clc1cccc(-c2ccc(Cl)c(Cl)c2Cl)c1Cl
TD50_Rat_Note: TD50 is harmonic mean of more than one positive test, TD50_Rat_mmol was not calculated for this mixture, but Activiity S, TargetSites_Rat_Female: liver
  Potency: 4.8 mg/kg/day

## Cc1cc(C)nc(-c2ccc([N+](=O)[O-])o2)n1
TD50_Rat_Note: harmonic mean of TD50 includes a value for upper 99% confidence limit from study with 100% tumor incidence but no lifeta, TargetSites_Rat_Female: kidney, mammary gland, small intestine, stomach, vascular system
  Potency: 1.39 mg/kg/day

## CN(C)CCN(Cc1ccco1)c1ccccn1
[1]
  outcome: inactive; no positive results

## C1COCCO1
TD50_Rat_Note: TD50 is harmonic mean of more than one positive test, greater than ten-fold variation among TD50 values for positive res, TargetSites_Rat_Female: liver, mammary gland, nasal cavity
  Potency: 267 mg/kg/day

## Nc1ccc2c(c1)C(=O)c1ccccc1C2=O
[1]
  Potency: 101 mg/kg/day

## [Cl-].[Cl-].[Hg+2]
[1]
  Potency: 3.12 mg/kg/day

## NC(Cc1ccc(O)c(O)c1)C(=O)O (centres undefined)
  outcome: inactive; no positive results

## S=C=NCc1ccccc1
  outcome: inactive; no positive results

## C=CC(=O)c1ccc2c(c1)OCO2
  outcome: inactive; no positive results

## O=C(O)CC(O)(CC(=O)O)C(=O)O
  outcome: inactive; no positive results
